Measurements: US10562909B2, “Fused quadracyclic compounds, compositions and uses thereof” (Tabomedex Biosciences, LLC, priority 2016, dated 2020)

What follows are molecules tested against MAPKAPK2 (Homo sapiens, UniProt P49137) (assay: MK2 Enzymatic Assay). Conditions: 0.5 nM MAPKAPK2, 3 μM ATP, 2 μM Ser/Thr4 peptide, 23° C., values given as concentration bins.
Type: biochemical
Procedure, shortened: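 Percent phosphorylation was derived from coumarin and fluorescein emissions relative to 0% and 100% phospho-peptide controls, read after a 120 min development step. Reactions used 2× stocks of 1 nM kinase, 4 μM peptide and 6 μM ATP; enzyme and peptide sat 20 min before a 120 min ATP reaction.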

MAPKAPK2, sequence (P49137 whole entry, species assumed): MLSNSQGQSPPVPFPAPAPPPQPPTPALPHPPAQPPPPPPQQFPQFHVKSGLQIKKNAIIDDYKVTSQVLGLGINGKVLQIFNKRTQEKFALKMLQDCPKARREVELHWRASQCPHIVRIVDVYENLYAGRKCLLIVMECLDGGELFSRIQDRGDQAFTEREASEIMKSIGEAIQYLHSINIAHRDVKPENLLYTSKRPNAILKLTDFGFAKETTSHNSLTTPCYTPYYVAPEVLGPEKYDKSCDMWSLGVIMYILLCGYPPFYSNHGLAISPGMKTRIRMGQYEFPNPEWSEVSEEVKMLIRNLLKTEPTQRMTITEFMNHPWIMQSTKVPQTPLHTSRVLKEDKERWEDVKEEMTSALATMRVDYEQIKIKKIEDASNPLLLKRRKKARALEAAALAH

Row | IC50 [nM] | Compound
1 | < 50 | CN(C)C[C@H]1CN(c2ccc3c(c2)Cn2cc(-c4ccc(C#N)cc4)cc2-c2nncn2-3)C[C@@H]1O (racemic) [Compound 74, 4-(7-(trans-3-((dimethylamino)methyl)-4-hydroxypyrrolidin-1-yl)-9H-benzo[e]pyrrolo[1,2-a][1,2,4]triazolo[3,4-c][1,4]diazepin-12-yl)benzonitrile]
2 | < 50 | N#Cc1ccc(-c2cc3n(c2)Cc2cc(N4CC[C@H]5NCC[C@@H]54)ccc2-n2ncnc2-3)cc1 (racemic) [Compound 249, 4-(7-(trans-hexahydropyrrolo[3,2-b]pyrrol-1(2H)-yl)-9H-benzo[e]pyrrolo[1,2-a][1,2,4]triazolo[5,1-c][1,4]diazepin-12-yl)benzonitrile]
3 | < 50 | CN(C)C[C@H]1CN(c2ccc3c(c2)Cn2cc(-c4ccc(F)cc4)cc2-c2nccn2-3)C[C@@H]1O [Compound 356, (3R,4S)-4-((dimethylamino)methyl)-1-(12-(4-fluorophenyl)-9H-benzo[e]imidazo[2,1-c]pyrrolo[1,2-a][1,4]diazepin-7-yl)pyrrolidin-3-ol]
4 | < 50 | C[C@H](CO)NC[C@H]1CCN(c2ccc3c(n2)Cn2cc(-c4ccc(F)cc4)cc2-c2nccn2-3)C1 [Compound 434, (R)-2-((((R)-1-(12-(4-fluorophenyl)-9H-imidazo[2,1-c]pyrido[3,2-e]pyrrolo[1,2-a][1,4]diazepin-7-yl)pyrrolidin-3-yl)methyl)amino)propan-1-ol]
5 | < 50 | O[C@H]1CN(c2ccc3c(c2)Cn2cc(-c4ccc(F)cc4)cc2-c2nccn2-3)C[C@@H]1CN1CCCC1 [Compound 470, (3R,4S)-1-(12-(4-fluorophenyl)-9H-benzo[e]imidazo[2,1-c]pyrrolo[1,2-a][1,4]diazepin-7-yl)-4-(pyrrolidin-1-ylmethyl)pyrrolidin-3-ol]
6 | < 50 | CN(C)[C@@H]1CN(c2ccc3c(c2)Cn2cc(-c4ccc(C#N)cc4)cc2-c2nncn2-3)C[C@H]1O (racemic) [Compound 57, 4-(7-(trans-3-(dimethylamino)-4-hydroxypyrrolidin-1-yl)-9H-benzo[e]pyrrolo[1,2-a][1,2,4]triazolo[3,4-c][1,4]diazepin-12-yl)benzonitrile]
7 | < 50 | CC(C)N1CC2(CCN(c3ccc4c(c3)Cn3cc(-c5ccc(F)cc5)cc3-c3nccn3-4)C2)C1 [Compound 368, 12-(4-fluorophenyl)-7-(2-isopropyl-2,6-diazaspiro[3.4]octan-6-yl)-9H-benzo[e]imidazo[2,1-c]pyrrolo[1,2-a][1,4]diazepine]
8 | < 50 | C[C@H](CO)NC[C@@H]1CCN(c2ccc3c(c2)Cn2cc(-c4ccc(C#N)cc4)cc2-c2nccn2-3)C1 [Compound 135, 4-(7-((S)-3-((((R)-1-hydroxypropan-2-yl)amino)methyl)pyrrolidin-1-yl)-9H-benzo[e]imidazo[2,1-c]pyrrolo[1,2-a][1,4]diazepin-12-yl)benzonitrile]
9 | < 50 | Fc1ccc(-c2cc3n(c2)Cc2nc(N4CCC5(CNC5)C4)ccc2-n2ccnc2-3)cc1 [Compound 440, 12-(4-fluorophenyl)-7-(2,6-diazaspiro[3.4]octan-6-yl)-9H-imidazo[2,1-c]pyrido[3,2-e] pyrrolo[1,2-a][1,4]diazepine]
10 | 50 to 100 | CN(C)[C@@H]1CCN(c2ccc3c(c2)Cn2cc(-c4ccc(F)cc4)cc2-c2ncnn2-3)C1 [Compound 426, (R)-1-(12-(4-fluorophenyl)-9H-benzo[e]pyrrolo[1,2-a][1,2,4]triazolo[5,1-c][1,4]diazepin-7-yl)-N,N-dimethylpyrrolidin-3-amine]
11 | < 50 | CN(C)C[C@@H]1CN(c2ccc3c(c2)Cn2cc(-c4ccc(F)cc4)cc2-c2ncnn2-3)C[C@H]1O [Compound 422, (3S,4R)-4-((dimethylamino)methyl)-1-(12-(4-fluorophenyl)-9H-benzo[e]pyrrolo[1,2-a][1,2,4]triazolo[5,1-c][1,4]diazepin-7-yl)pyrrolidin-3-ol]
12 | < 50 | CNC[C@H]1CN(c2ccc3c(c2)Cn2cc(-c4ccc(F)cc4)cc2-c2ncnn2-3)C[C@H]1F [Compound 497, 1-((3S,4S)-4-fluoro-1-(12-(4-fluorophenyl)-9H-benzo[e]pyrrolo[1,2-a][1,2,4]triazolo[5,1-c] [1,4]diazepin-7-yl)pyrrolidin-3-yl)-N-methylmethanamine]
13 | 50 to 100 | N#Cc1ccc(-c2cc3n(c2Cl)Cc2cc(N4CC[C@H](CN)C4)ccc2-n2cnnc2-3)cc1 [Compound 171, (R)-4-(7-(3-(aminomethyl)pyrrolidin-1-yl)-11-chloro-9H-benzo[e]pyrrolo[1,2-a][1,2,4]tri-azolo[3,4-c][1,4]diazepin-12-yl)benzonitrile]
14 | < 50 | CN(C)C[C@@H]1CCN(c2ccc3c(c2)Cn2cc(-c4ccc(F)cc4)cc2-c2ncnn2-3)C1 [Compound 413, (S)-1-(1-(12-(4-fluorophenyl)-9H-benzo[e]pyrrolo[1,2-a][1,2,4]triazolo[5,1-c][1,4]diazepin-7-yl)pyrrolidin-3-yl)-N,N-dimethylmethanamine]
15 | < 50 | CNC[C@H]1CN(c2ccc3c(c2)Cn2cc(-c4ccc(F)cc4)cc2-c2nccn2-3)C[C@H]1O [Compound 482, (3S,4S)-1-(12-(4-fluorophenyl)-9H-benzo[e]imidazo[2,1-c]pyrrolo[1,2-a][1,4]diazepin-7-yl)-4-((methylamino)methyl)pyrrolidin-3-ol]
16 | 100 to 200 | CC(C)(NCC1CCN(c2ccc3c(c2)Cn2cc(-c4ccc(F)cc4)cc2-c2nccn2-3)C1)C(=O)O (centres unmarked) [Compound 479, 2-(((1-(12-(4-fluorophenyl)-9H-benzo[e]imidazo[2,1-c]pyrrolo[1,2-a][1,4]diazepin-7-yl)pyrrolidin-3-yl)methyl)amino)-2-methylpropanoic acid]
17 | < 50 | CN(C)C1CCN(c2ccc3c(c2)Cn2cc(-c4ccc(F)cc4)cc2-c2nccn2-3)CC1 [Compound 381, 1-(12-(4-fluorophenyl)-9H-benzo[e]imidazo[2,1-c]pyrrolo[1,2-a][1,4]diazepin-7-yl)-N,N-dimethylpiperidin-4-amine]
18 | < 50 | CNCCC1CCN(c2ccc3c(c2)Cn2cc(-c4ccc(F)cc4)cc2-c2nccn2-3)C1 (centres unmarked) [Compound 487, 2-(1-(12-(4-fluorophenyl)-9H-benzo[e]imidazo[2,1-c]pyrrolo[1,2-a][1,4]diazepin-7-yl)pyrrolidin-3-yl)-N-methylethanamine]
19 | < 50 | CN(C)[C@H]1CN(c2ccc3c(c2)Cn2cc(-c4ccc(F)cc4)cc2-c2nccn2-3)C[C@@H]1O [Compound 352, (3S,4S)-4-(dimethylamino)-1-(12-(4-fluorophenyl)-9H-benzo[e]imidazo[2,1-c]pyrrolo[1,2-a] [1,4]diazepin-7-yl)pyrrolidin-3-ol]
20 | 50 to 100 | CN(C)[C@@H]1CN(c2ccc3c(c2)Cn2cc(-c4ccc(F)cc4)cc2-c2ncnn2-3)C[C@H]1O [Compound 417, (3R,4R)-4-(dimethylamino)-1-(12-(4-fluorophenyl)-9H-benzo[e]pyrrolo[1,2-a][1,2,4]triazolo[5,1-c][1,4]diazepin-7-yl)pyrrolidin-3-ol]
21 | < 50 | N#Cc1ccc(-c2cc3n(c2)Cc2cc(N4CC[C@H](CN5CCC(O)CC5)C4)ccc2-n2cnnc2-3)cc1 [Compound 111, (R)-4-(7-(3-((4-hydroxypiperidin-1-yl)methyl)pyrrolidin-1-yl)-9H-benzo[e]pyrrolo[1,2-a] [1,2,4]triazolo[3,4-c][1,4]diazepin-12-yl)benzonitrile]
22 | 50 to 100 | CN[C@H]1CCN(c2ccc3c(c2)Cn2c(cc(-c4ccc(C#N)cc4)c2Cl)-c2nncn2-3)C1 [Compound 167, (S)-4-(11-chloro-7-(3-(methylamino)pyrrolidin-1-yl)-9H-benzo[e]pyrrolo[1,2-a][1,2,4]tri-azolo[3,4-c][1,4]diazepin-12-yl)benzonitrile]
23 | < 50 | CN(C)C[C@@H]1CCN(c2ccc3c(c2)Cn2cc(-c4ccc(F)cc4)cc2-c2nnnn2-3)C1 [Compound 393, (S)-1-(1-(12-(4-fluorophenyl)-9H-benzo[e]pyrrolo[1,2-a]tetrazolo[5,1-c][1,4]diazepin-7-yl)pyrrolidin-3-yl)-N,N-dimethylmethanamine]
24 | < 50 | OCCN1CC2(CCN(c3ccc4c(c3)Cn3cc(-c5ccc(F)cc5)cc3-c3nccn3-4)C2)C1 [Compound 369, 2-(6-(12-(4-fluorophenyl)-9H-benzo[e]imidazo[2,1-c]pyrrolo[1,2-a][1,4]diazepin-7-yl)-2,6-diazaspiro[3.4]octan-2-yl)ethanol]
25 | 50 to 100 | N[C@H]1CCCN(c2ccc3c(c2)Cn2cc(-c4ccc(F)cc4)cc2-c2nnnn2-3)C1 [Compound 390, (S)-1-(12-(4-fluorophenyl)-9H-benzo[e]pyrrolo[1,2-a]tetrazolo[5,1-c][1,4]diazepin-7-yl) piperidin-3-amine]
26 | < 50 | C[C@H](CO)NC[C@@H]1CCN(c2ccc3c(c2)Cn2cc(-c4ccc(F)cc4)cc2-c2ncnn2-3)C1 [Compound 419, (R)-2-((((S)-1-(12-(4-fluorophenyl)-9H-benzo[e]pyrrolo[1,2-a][1,2,4]triazolo[5,1-c][1,4]diazepin-7-yl)pyrrolidin-3-yl)methyl)amino)propan-1-ol]
27 | < 50 | C[C@@H](CO)N1CC2(CCN(c3ccc4c(c3)Cn3cc(-c5ccc(F)cc5)cc3-c3nccn3-4)C2)C1 [Compound 371, (S)-2-(6-(12-(4-fluorophenyl)-9H-benzo[e]imidazo[2,1-c]pyrrolo[1,2-a][1,4]diazepin-7-yl)-2,6-diazaspiro[3.4]octan-2-yl)propan-1-ol]
28 | 50 to 100 | CN(C)[C@@H]1CCN(c2cc3c(cn2)-n2cnnc2-c2cc(-c4ccc(C#N)cc4)cn2C3)C1 [Compound 319, (R)-4-(7-(3-(dimethylamino)pyrrolidin-1-yl)-9H-pyrido[3,4-e]pyrrolo[1,2-a][1,2,4]triazolo[3,4-c][1,4]diazepin-12-yl)benzonitrile]
29 | < 50 | O[C@@H]1CN(c2ccc3c(c2)Cn2cc(-c4ccc(F)cc4)cc2-c2nccn2-3)C[C@H]1CN1CCCC1 [Compound 471, (3S,4R)-1-(12-(4-fluorophenyl)-9H-benzo[e]imidazo[2,1-c]pyrrolo[1,2-a][1,4]diazepin-7-yl)-4-(pyrrolidin-1-ylmethyl)pyrrolidin-3-ol]
